Experimental data as given in paper doi:10.1101/659573v1 (bioRxiv, 2019).

Test system: mucin
Assay: Bulk diffusion of FITC-peptides and fluorescein salt in mucin
Type: in vitro ADME
Conditions: DPBS/Dmucin

O=C([O-])c1ccccc1-c1c2ccc(=O)cc-2oc2cc([O-])ccc12.[Na+].[Na+] [Fluorescein salt, fluorescein sodium salt]
fold decreased diffusion in mucin compared to saline: 3 fold
